Measurements: patent publication US8586611B2 (priority 2005, dated 2013)

Tests used:
Assay type in all cases: in vivo
[1] = system: Pseudoperonospora cubensis; test: Test A: cucumber downy mildew, spray the day before inoculation (disease rating, 100 = 100% disease control)
Source text: The test compounds were first dissolved in acetone in an amount equal to 3% of the final volume and then suspended at the desired concentration (in ppm) in acetone and purified water (50/50 mix by volume) containing 250 ppm of the surfactant Trem® 014 (polyhydric alcohol esters). The resulting test suspensions were then used in tests A-E. Spraying a 200 ppm test suspension to the point of run-off on the test plants was the equivalent of a rate of 500 g/ha.
The test suspension was sprayed to the point of run-off on cucumber seedlings. The following day the seedlings were inoculated with a spore suspension of Pseudoperonospora cubensis (the causal agent of cucumber downy mildew) and incubated in a saturated atmosphere at 20° C. for 24 h, and then moved to a growth chamber at 20° C. for 6 days, after which disease ratings were made.
Results for Tests A-F are given in Table A. In the table, a rating of 100 indicates 100% disease control and a rating of 0 indicates no disease control (relative to the controls). A dash (-) indicates no test results.

[2] = system: Erysiphe graminis f. sp. tritici; test: Test E: wheat powdery mildew, spray the day before inoculation (disease rating, 100 = 100% disease control)
Outline: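 Wheat seedlings sprayed to run-off with compound suspended in acetone/water 50/50 with 250 ppm Trem 014 (200 ppm equivalent to 500 g/ha); inoculated next day with Erysiphe graminis f. sp. tritici spore dust. Kept 7 days at 20° C, then rated 0–100% disease control versus controls.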

Plasmopara viticola = test: Test B: grape downy mildew, spray 24 h after inoculation (disease rating, 100 = 100% disease control)
Outline: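 Grape seedlings were inoculated with Plasmopara viticola and held 24 h saturated at 20 °C, then sprayed to run-off with compound suspension (acetone/water with 250 ppm Trem 014; 200 ppm ≈ 500 g/ha). After 5 days at 20 °C and 24 h saturation, disease was rated from 0 to 100% control versus untreated.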

Phytophthora infestans = test: whole plant or invertebrate; conditions: tomato late blight
[3] = spray the day before inoculation, compounds without asterisk (not 40 or 10 ppm)
[4] = spray 24 h after inoculation, compounds without asterisk (not 40 or 10 ppm)
[5] = sprayed the day before inoculation, unmarked compounds (no asterisk, not 40 or 10 ppm)
[6] = sprayed the day before inoculation, 7 days at 20° C., unmarked compounds (no asterisk, not 40 or 10 ppm)
[7] = sprayed 24 h after inoculation, unmarked compounds (no asterisk, not 40 or 10 ppm)

Row | Molecule | Test A disease rating (100 = 100% disease control, 0 = no disease control) [1, 3] | Test E disease rating (100 = 100% disease control, 0 = no disease control) [2, 3] | Test B disease rating (100 = 100% disease control, 0 = no disease control) (Plasmopara viticola; [4]) | Test C disease rating (100 = 100% disease control, 0 = no disease control) (Phytophthora infestans; [3]) | Test A disease rating (100 = 100% disease control, 0 = no disease control) [1, 5] | Test E disease rating (100 = 100% disease control, 0 = no disease control) [2, 6] | Test B disease rating (100 = 100% disease control, 0 = no disease control) (Plasmopara viticola; [7]) | Test C disease rating (100 = 100% disease control, 0 = no disease control) (Phytophthora infestans; [5])
1 | C[C@H](c1ccccc1)N(C)C(=O)c1csc(C2CCN(C(=O)Cc3cccc(S(C)(=O)=O)c3)CC2)n1 [compound 31] | 0% | 0% | 0% | 0% |  |  |  | 
2 | C[C@H](c1ccccc1)N(C)C(=O)c1csc(C2CCN(C(=O)Cc3ccc(F)c(C(F)(F)F)c3)CC2)n1 [compound 34] | 85% | 0% | 48% | 31% |  |  |  | 
3 | C[C@H](c1ccccc1)N(C)C(=O)c1csc(C2CCN(C(=O)Cc3cc(F)cc(F)c3)CC2)n1 [compound 37] | 85% | 87% | 23% | 80% |  |  |  | 
4 | C[C@H](c1ccccc1)N(C)C(=O)c1csc(C2CCN(C(=O)Cc3cc(F)cc(C(F)(F)F)c3)CC2)n1 [compound 40] | 98% | 0% | 76% | 60% |  |  |  | 
5 | C[C@H](c1ccccc1)N(C)C(=O)c1csc(C2CCN(C(=O)Cc3cccc(C(F)(F)F)c3F)CC2)n1 [compound 42] | 99% | 21% | 31% | 100% |  |  |  | 
6 | Cc1cc(C)cc(CC(=O)N2CCC(c3nc(C(=O)N(C)[C@H](C)c4ccccc4)cs3)CC2)c1 [compound 43] | 100% | 21% | 83% | 100% |  |  |  | 
7 | C[C@H](c1ccccc1)N(C)C(=O)c1csc(C2CCN(C(=O)Cc3ccccc3OC(F)(F)F)CC2)n1 [compound 45] | 95% | 0% | 70% | 98% |  |  |  | 
8 | C[C@H](c1ccccc1)N(C)C(=O)c1csc(C2CCN(C(=O)Cc3cccc(OC(F)(F)F)c3)CC2)n1 [compound 49] | 97% | 85% | 83% | 67% |  |  |  | 
9 | C[C@H](c1ccccc1)N(C)C(=O)c1csc(C2CCN(C(=O)Nc3cccc(C(F)(F)F)c3)CC2)n1 [compound 155] | 100% | 0% | 41% | 31% |  |  |  | 
10 | CN(Cc1ccccc1)C(=O)c1csc(C2CCN(C(=O)Cc3ccccc3Cl)CC2)n1 [compound 161] | 0% | 42% | 14% | 15% |  |  |  | 
11 | C[C@@H](NC(=O)c1csc(C2CCN(C(=O)Cc3ccccc3Cl)CC2)n1)c1ccccc1 [compound 261] |  |  |  |  | 93 | 21 | 0 | 31
12 | O=C(NCc1ccccc1)c1csc(C2CCN(C(=O)Cc3ccccc3Cl)CC2)n1 [compound 262] |  |  |  |  | 94 | 0 | 6 | 52
13 | O=C(NC1Cc2ccccc2C1)c1csc(C2CCN(C(=O)Cc3ccccc3Cl)CC2)n1 [compound 265] |  |  |  |  | 0 | 47 | 34 | 0
14 | O=C(Cc1ccccc1Cl)N1CCC(c2nc(C(=O)N3CCc4ccccc4C3)cs2)CC1 [compound 267] |  |  |  |  | 95 | 0 | 6 | 21
15 | CC1CCN(C(=O)c2csc(C3CCN(C(=O)Cc4ccccc4Cl)CC3)n2)CC1 [compound 268] |  |  |  |  | 0 | 0 | 6 | 36
16 | O=C(Cc1ccccc1Cl)N1CCC(c2nc(C(=O)N3CCCC3c3cccnc3)cs2)CC1 (centres unmarked) [compound 269] |  |  |  |  | 0 | 0 | 40 | 0
17 | C[C@@H](NC(=O)c1csc(C2CCN(C(=O)Cc3cccc(C(F)(F)F)c3)CC2)n1)c1ccc(Br)cc1 [compound 270] |  |  |  |  | 0 | 0 | 0 | 0
18 | N-[(1R)-2,3-dihydro-1H-inden-1-yl]-N-methyl-2-[1-[[5-methyl-3-(trifluoromethyl)-1H-pyrazol-1-yl]acetyl]-4-piperidinyl]-4-thiazolecarboxamide [Compound 178] | 100% | 0% | 99% | 100% |  |  |  | 
19 | N-methyl-1-[1-[[5-methyl-3-(trifluoromethyl)-1H-pyrazol-1-yl]acetyl]-4-piperidinyl]-N-[(1R)-1,2,3,4-tetrahydro-1-naphthalenyl]-1H-pyrazole-4-carboxamide [Compound 233] | 96% | 29% | 51% | 91% |  |  |  | 
20 | N-methyl-2-[1-[[5-methyl-3-(trifluoromethyl)-1H-pyrazol-1-yl]acetyl]-4-piperidinyl]-N-(1,2,3,4-tetrahydro-1-naphthalenyl)-4-thiazolecarboxamide [Compound 188] | 90% | 86% | 6% | 29% |  |  |  | 
21 | N-methyl-2-[1-[[5-methyl-3-(trifluoromethyl)-1H-pyrazol-1-yl]acetyl]-4-piperidinyl]-N-(1,2,3,4-tetrahydro-2-methyl-1-naphthalenyl)-4-thiazolecarboxamide [Compound 193] | 93% | 21% | 20% | 31% |  |  |  | 
22 | N-methyl-2-[1-[[5-methyl-3-(trifluoromethyl)-1H-pyrazol-1-yl]acetyl]-4-piperidinyl]-N-[(1R)-1-phenylethyl]-4-thiazolecarboxamide [Compound 70] | 0% | 0% | 0% | 33% |  |  |  | 
23 | N-methyl-2-[1-[[5-methyl-3-(trifluoromethyl)-1H-pyrazol-1-yl]acetyl]-4-piperidinyl]-N-[(1R)-1-phenylpropyl]-4-oxazolecarboxamide [Compound 152] | 0% | 0% | 0% | 0% |  |  |  | 
